In patent publication US11653650B2, “Fungicide composition and method for controlling disease of crop” (ISHIHARA SANGYO KAISHA, LTD., priority 2017, dated 2023):
Read-outs that look alike come from different tables or passages of the source.

Columns and labels:
[1] = tested on: pear scab (Japanese pear scab); assay: Effect test against pear scab (Japanese pear scab), effect on leaves, sprayed adult pear trees; format: in vivo, pear (cultivar: Housui); settings: sprayed four times
Experimental: Test Example 1: Effect Test Against Pear Scab (Japanese Pear Scab) (Effect on Leaves) A given amount of a chemical was sprayed on adult trees of pear (cultivar: Housui) with a pressurized sprayer in an amount sufficient to drip from the leaves. The spraying was performed four times in total at intervals of 8 to 10 days, about 50 leaves per area were investigated about the presence or absence of the onset of the disease days after the final spraying, and the ratio of the leaves with the onset of the disease and the disease control value were calculated (in triplicate). In addition, the theoretical value (of the disease control value) by mixing was also calculated according to the Colby's formula. Disease control value=(1−a/b)×100 wherein a: Mean ratio of leaves with the onset of the disease in the treated area, b: Mean ratio of leaves with the onset of the disease in the untreated area; Colby's formula=(X+Y)−XY/100 wherein X: Disease control value when using isofetamid alone, Y: Disease control value when using mandestrobin alone. When the actually measured value is higher than the theoretical value, the fungicide composition of the present invention has a synergistic effect on pear scab (Japanese pear scab).

[2] = tested on: pear scab (Japanese pear scab); assay: Effect test against pear scab (Japanese pear scab), effect on fruits, sprayed adult pear trees; format: in vivo, pear (cultivar: Housui); settings: 8 days after the final spraying
Experimental: Test Example 2: Effect Test Against Pear Scab (Japanese Pear Scab) (Effect on Fruits) A given amount of a chemical was sprayed on adult trees of pear (cultivar: Housui) with a pressurized sprayer in an amount sufficient to drip from the leaves and fruits. The spraying was performed four times in total at intervals of 6 to 11 days, about 50 fruits per area were investigated about the presence or absence of the onset of the disease 8 days after the final spraying, and the ratio of the fruits with the onset of the disease and the disease control value were calculated (in triplicate). In addition, the theoretical value (of the disease control value) by mixing was also calculated according to the Colby's formula. Disease control value=(1−a/b)×100 wherein a: Mean ratio of fruits with the onset of the disease in the treated area, b: Mean ratio of fruits with the onset of the disease in the untreated area.

[3] = tested on: Pear scab (Japanese pear scab) fungus, Venturia nashicola; assay: Inhibitory effect test for hyphal elongation on PDA, 20° C., 25 days; format: cell-based; settings: read-out: Inhibition rate (%)
Experimental: Test Example 3: Inhibitory Effect Test for Hyphal Elongation (Pear Scab (Japanese Pear Scab) Fungus, Venturia nashicola) A fungal flora (diameter: 4 mm) obtained by pre-cultivation was transplanted on PDA (potato dextrose agar medium) containing a given concentration of a chemical and then cultured at room temperature of 20° C. for 25 days, followed by measuring the diameter (mm) of the grown flora to determine the hyphal elongation inhibition rate. In addition, theoretical values (of the hyphal elongation inhibition rate) were calculated according to the Colby's calculation formula based on the above determined hyphal elongation inhibition rate, and presented in parenthesis in the table. Inhibition rate=(1−a/b)×100 wherein a: “Mean diameter (mm) of flora in the treated area”—4, b: “Mean diameter (mm) of flora in the untreated area”—4 Colby's formula=(X+Y)−XY/100 X: Inhibition rate when using isofetamid alone Y: Inhibition rate when using mandestrobin alone. When the experimental value is higher than the theoretical value, the fungicide composition of the present invention has a synergistic effect on pear scab (Japanese pear scab) fungus.

[4] = tested on: Apple anthracnose (apple bitter rot) fungus, Colletotrichum gloeosporioides; assay: Inhibitory effect test for hyphal elongation on PDA, 20° C., 2 days; format: cell-based; settings: read-out: Inhibition rate (%)
Experimental: (§1) Test Example 4: Inhibitory Effect Test for Hyphal Elongation (Apple Anthracnose (Apple Bitter Rot) Fungus, Colletotrichum gloeosporioides) A fungal flora (diameter: 4 mm) obtained by pre-cultivation was transplanted on PDA containing a given concentration of a chemical and then cultured at room temperature of 20° C. for 2 days, followed by measuring the diameter of the grown flora in the same manner as described in Test Example 3 to determine the hyphal elongation inhibition rate. In addition, theoretical values (of the hyphal elongation inhibition rate) were calculated according to the Colby's calculation formula based on the above determined hyphal elongation inhibition rate, and presented in parenthesis in the table.

[5] = tested on: Apple anthracnose (apple bitter rot) fungus, Colletotrichum acutatum; assay: as above; format: cell-based; settings: read-out: Inhibition rate (%)
Experimental: as §1, with “Test Example 5: Inhibitory Effect” for “Test Example 4: Inhibitory Effect”, “Fungus, Colletotrichum acutatum) A fungal” for “Fungus, Colletotrichum gloeosporioides) A fungal”, “the hyphal elongation, inhibition rate.” for “the hyphal elongation inhibition rate.”

[6] = Isofetamid 0.01 ppm alone (Mandestrobin 0 ppm)
[7] = Isofetamid 0.1 ppm alone (Mandestrobin 0 ppm)
[8] = Isofetamid 1 ppm alone (Mandestrobin 0 ppm)
[9] = Isofetamid 10 ppm alone (Mandestrobin 0 ppm)
[10] = Mandestrobin 0.01 ppm alone (Isofetamid 0 ppm)
[11] = Mandestrobin 0.1 ppm alone (Isofetamid 0 ppm)
[12] = Mandestrobin 1 ppm alone (Isofetamid 0 ppm)
[13] = Mandestrobin 10 ppm alone (Isofetamid 0 ppm)

Cc1cc(OC(C)C)ccc1C(=O)C(C)(C)NC(=O)c1sccc1C [Isofetamid, N-[1,1-dimethyl-2-(4-isopropoxy-o-tolyl)-2-oxoethyl]-3-methylthiophene-2-carboxamide]
Disease control value ([1]; Isofetamid 90 ppm): 66.3
Ratio of leaves with onset of disease (%) ([1]; Isofetamid 90 ppm): 31.3%
Disease control value ([1]; Isofetamid 190 ppm): 56.4
Ratio of leaves with onset of disease (%) ([1]; Isofetamid 190 ppm): 40.5%
Disease control value ([2]; Isofetamid 93 ppm): 83.4
Ratio of fruits with onset of disease (%) ([2]; Isofetamid 93 ppm): 7.6%
Disease control value ([2]; Isofetamid 134 ppm): 77.5
Ratio of fruits with onset of disease (%) ([2]; Isofetamid 134 ppm): 10.3%
Disease control value ([2]; Isofetamid 187 ppm): 62.3
Ratio of fruits with onset of disease (%) ([2]; Isofetamid 187 ppm): 17.2%
inhibition at 0.01 ppm [3, 6]: 0%
inhibition at 0.1 ppm [3, 7]: 8.5%
inhibition at 1 ppm [3, 8]: 49.6%
inhibition at 10 ppm [3, 9]: 100%
inhibition at 0.01 ppm [4, 6]: 0%
inhibition at 0.1 ppm [4, 7]: 0%
inhibition at 1 ppm [4, 8]: 0%
inhibition at 10 ppm [4, 9]: 2.6%
inhibition at 0.01 ppm [5, 6]: 6.9%
inhibition at 0.1 ppm [5, 7]: 3%
inhibition at 1 ppm [5, 8]: 0%
inhibition at 10 ppm [5, 9]: 24.8%

CNC(=O)C(OC)c1ccccc1COc1cc(C)ccc1C (racemic) [Mandestrobin, (RS)-2-methoxy-N-methyl-2-[α-(2,5-xylyloxy)-o-tolyl]acetamide]
Disease control value ([1]; Mandestrobin 70 ppm): 65.9
Ratio of leaves with onset of disease (%) ([1]; Mandestrobin 70 ppm): 31.7%
Disease control value ([1]; Mandestrobin 140 ppm): 74.9
Ratio of leaves with onset of disease (%) ([1]; Mandestrobin 140 ppm): 23.3%
Disease control value ([2]; Mandestrobin 70 ppm): 77.5
Ratio of fruits with onset of disease (%) ([2]; Mandestrobin 70 ppm): 10.3%
Disease control value ([2]; Mandestrobin 100 ppm): 90.1
Ratio of fruits with onset of disease (%) ([2]; Mandestrobin 100 ppm): 4.5%
Disease control value ([2]; Mandestrobin 140 ppm): 93.4
Ratio of fruits with onset of disease (%) ([2]; Mandestrobin 140 ppm): 3.0%
inhibition at 0.01 ppm [3, 10]: 0%
inhibition at 0.1 ppm [3, 11]: 12.8%
inhibition at 1 ppm [3, 12]: 27.7%
inhibition at 10 ppm [3, 13]: 44.7%
inhibition at 0.01 ppm [4, 10]: 1.9%
inhibition at 0.1 ppm [4, 11]: 3.8%
inhibition at 1 ppm [4, 12]: 14.1%
inhibition at 10 ppm [4, 13]: 33.3%
inhibition at 0.01 ppm [5, 10]: 0%
inhibition at 0.1 ppm [5, 11]: 0%
inhibition at 1 ppm [5, 12]: 42.6%
inhibition at 10 ppm [5, 13]: 55.4%
